Measured values taken from patent US20240150423A1, “GLP-1 ANALOGUE-MODIFIED DIMERS WITH DIFFERENT CONFIGURATIONS, PREPARATION METHOD THEREOF, AND APPLICATION THEREOF IN TREATMENT OF TYPE II DIABETES” (Nanjing Finepeptide Biopharmaceutical Co.,Ltd, priority 2019, published 2024).
Non-standard residues stand in square brackets, D forms with d. No end group written: not given here. βAla = NCCC(=O)O

tested on: Normal Kunming (KM) mice; experiment: multiple OGTT (mOGTT): hypoglycemic duration after a single administration; format: in vivo; conditions: monomeric peptides, single injection at the same dose (1.126 nmol), subcutaneous
Outline: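 Normal Kunming mice given a single dose, then oral glucose challenges; tail-blood glucose read by meter at 0, 10, 20, 40, 60 and 120 min. Duration scored as hypoglycemic period until group mean glucose exceeded the NaCl control twice.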

Substance	Hypoglycemic [days]
His-βAib-Glu-Gly-Thr-Phe-Thr-Ser-Asp-Val-Ser-Cys-Tyr-Leu-Glu-Gly-Gln-Ala-Ala-Lys[N-ϵ-(N-α-oleoyl)]-Glu-Phe-Ile-Ala-Trp-Leu-Val-Arg-Gly-Arg-Gly-NH2 (HXEGTFTSDVSCYLEGQAAXEFIAWLVRGRG; not fully specified; beta-Aib; oleoyl on Lys side chain; C-terminal amide; Sequence is synthesized; (2)..(2) Xaa is bAib; (20)..(20) Xaa is 26Lys[N-e-(N-a-oleoyl-L-g-glutamyl)]; (31)..(31) N-terminal) [G4 series 38]	6
His-βAib-Glu-Gly-Thr-Phe-Thr-Ser-Asp-Val-Ser-Cys-Tyr-Leu-Glu-Gly-Gln-Ala-Ala-Lys[N-ϵ-(N-α-oleoyl-L-γ-glutamyl)]-Glu-Phe-Ile-Ala-Trp-Leu-Val-Arg-Gly-Arg-Gly-NH2 (HXEGTFTSDVSCYLEGQAAXEFIAWLVRGRG; not fully specified; beta-Aib; oleoyl-gamma-Glu on Lys; C-terminal amide; Sequence is synthesized; (2)..(2) Xaa is bAib; (20)..(20) Xaa is 26Lys[N-e-(N-a-oleoyl-L-g-glutamyl)]; (31)..(31) N-terminal) [G6 series 49]	5
His-βAla-Glu-Gly-Thr-Phe-Thr-Cys-Asp-Val-Ser-Ser-Tyr-Leu-Glu-Gly-Gln-Ala-Ala-Lys-Glu-Phe-Ile-Ala-Trp-Leu-Val-Arg-βAla-Arg-NH2 (H[βAla]EGTFTCDVSSYLEGQAAKEFIAWLVR[βAla]R-NH2; not fully specified; printed as His-βAla-Glu-Gly-Thr-Phe-Thr-Cys-Asp-Val-Ser-Ser-Tyr-Leu-Glu-Gly-Gln-Ala-Ala-Lys-Glu-Phe-Ile-Ala-Trp-Leu-Val-Arg-βAla-Arg-NH2) [G8 series 69]	2
His-βAla-Glu-Gly-Thr-Phe-Thr-Cys-Asp-Val-Ser-Ser-Tyr-Leu-Glu-Gly-Gln-Ala-Ala-Lys[N-ϵ-(N-α-oleoyl-L-γ-glutamyl)]-Glu-Phe-Ile-Ala-Trp-Leu-Val-Arg-Gly-Arg-Gly-NH2 (HXEGTFTCDVSSYLEGQAAXEFIAWLVRGRG; beta-amino acid; oleoyl-gamma-Glu on Lys; C-terminal amide; Sequence is synthesized; (2)..(2) Xaa is bAla; (20)..(20) Xaa is 26Lys[N-e-(N-a-oleoyl-L-g-glutamyl)]; (31)..(31) N-terminal) [G8 series 68]	4
His-βAla-Glu-Gly-Thr-Phe-Thr-Ser-Asp-Val-Cys-Ser-Tyr-Leu-Glu-Gly-Gln-Ala-Ala-Lys-Glu-Phe-Ile-Ala-Trp-Leu-Val-Arg-βAla-Arg-NH2 (H[βAla]EGTFTSDVCSYLEGQAAKEFIAWLVR[βAla]R-NH2; not fully specified; printed as His-βAla-Glu-Gly-Thr-Phe-Thr-Ser-Asp-Val-Cys-Ser-Tyr-Leu-Glu-Gly-Gln-Ala-Ala-Lys-Glu-Phe-Ile-Ala-Trp-Leu-Val-Arg-βAla-Arg-NH2) [G2 series 19]	3
His-βAla-Glu-Gly-Thr-Phe-Thr-Ser-Asp-Val-Cys-Ser-Tyr-Leu-Glu-Gly-Gln-Ala-Ala-Lys[N-ϵ-(N-α-oleoyl)]-Glu-Phe-Ile-Ala-Trp-Leu-Val-Arg-Gly-Arg-Gly-NH2 (HXEGTFTSDVCSYLEGQAAXEFIAWLVRGRG; β-amino acid; oleoyl on Lys; C-terminal amide; Sequence is synthesized; (2)..(2) Xaa is bAla; (20)..(20) Xaa is 26Lys[N-e-(N-a-oleoyl-L-g-glutamyl)]; (31)..(31) N-terminal) [G4 series 31]	5
His-βAla-Glu-Gly-Thr-Phe-Thr-Ser-Asp-Val-Cys-Ser-Tyr-Leu-Glu-Gly-Gln-Ala-Ala-Lys[N-ϵ-(N-α-oleoyl-L-γ-glutamyl)]-Glu-Phe-Ile-Ala-Trp-Leu-Val-Arg-Gly-Arg-Gly-NH2 (HXEGTFTSDVCSYLEGQAAXEFIAWLVRGRG; β-amino acid; oleoyl-γ-glutamyl on Lys; C-terminal amide; Sequence is synthesized; (2)..(2) Xaa is bAla; (20)..(20) Xaa is 26Lys[N-e-(N-a-oleoyl-L-g-glutamyl)]; (31)..(31) N-terminal) [G2 series 18]	5
His-βAla-Glu-Gly-Thr-Phe-Thr-Ser-Asp-Val-Ser-Cys-Tyr-Leu-Glu-Gly-Gln-Ala-Ala-Lys-Glu-Phe-Ile-Ala-Trp-Leu-Val-Arg-βAla-Arg-NH2 (H[βAla]EGTFTSDVSCYLEGQAAKEFIAWLVR[βAla]R-NH2; also: disulfide-linked homodimer via Cys12) [G7 series 55]	2
His-βAla-Glu-Gly-Thr-Phe-Thr-Ser-Asp-Val-Ser-Cys-Tyr-Leu-Glu-Gly-Gln-Ala-Ala-Lys[N-ϵ-(N-α-Palmitoyl-L-γ-glutamyl)]-Glu-Phe-Ile-Ala-Trp-Leu-Val-Lys[N-ϵ-(N-α-Palmitoyl-L-γ-glutamyl)]-Gly-Arg-Gly-NH2 (HXEGTFTSDVSCYLEGQAAXEFIAWLVXGRG; not fully specified; beta-amino acid; two palmitoyl-gamma-Glu on Lys; amide; Sequence is synthesized; (2)..(2) Xaa is bAla; (20)..(20) Xaa is 26Lys[N-e-(N-a-palmitoyl-L-g-glutamyl)]; (28)..(28) Xaa is 26Lys[N-e-(N-a-palmitoyl-L-g-glutamyl)]; (31)..(31) N-terminal) [G5 series 44]	2
His-βAla-Glu-Gly-Thr-Phe-Thr-Ser-Asp-Val-Ser-Cys-Tyr-Leu-Glu-Gly-Gln-Ala-Ala-Lys[N-ϵ-(N-α-oleoyl)]-Glu-Phe-Ile-Ala-Trp-Leu-Val-Arg-Gly-Arg-Gly-NH2 (HXEGTFTSDVSCYLEGQAAXEFIAWLVRGRG; beta-amino acid; oleoyl on Lys side chain; C-terminal amide; Sequence is synthesized; (2)..(2) Xaa is bAla; (20)..(20) Xaa is 26Lys[N-e-(N-a-oleoyl-L-g-glutamyl)]; (31)..(31) N-terminal) [G4 series 39]	5
His-βAla-Glu-Gly-Thr-Phe-Thr-Ser-Asp-Val-Ser-Cys-Tyr-Leu-Glu-Gly-Gln-Ala-Ala-Lys[N-ϵ-(N-α-oleoyl-L-γ-glutamy)]-Glu-Phe-Ile-Ala-Trp-Leu-Val-Arg-Gly-Arg-Gly-NH2 (HXEGTFTSDVSCYLEGQAAXEFIAWLVRGRG; beta-amino acid; oleoyl-gamma-Glu on Lys; C-terminal amide; Sequence is synthesized; (2)..(2) Xaa is bAla; (20)..(20) Xaa is 26Lys[N-e-(N-a-oleoyl-L-g-glutamyl)]; (31)..(31) N-terminal) [G6 series 50]	4
